{
  "source": "ChEMBL document CHEMBL5356980",
  "about": "“Linker optimization and activity validation of a cell surface vimentin targeted homo-dimeric peptoid antagonist for lung cancer stem cells” (Bioorg Med Chem, 2024)",
  "key": {"NCI-H1299": {"tested_on": "NCI-H1299", "assay": "Antiproliferative activity against human NCI-H1299 cells assessed as reduction in cell viability incubated for 4 days by MTS assay", "assay_type": "functional, cell-based", "conditions": "for Activity: dose 1000-100000 nM, time 4.0 day"}, "NCI-H460": {"tested_on": "NCI-H460", "assay": "Inhibition of colony formation in human NCI-H460 cells at 20 uM incubated for 8 days by crystal violet staining based analysis", "assay_type": "functional, cell-based", "conditions": "time 8.0 day"}, "Vimentin": {"target": "Vimentin (Homo sapiens, UniProt P08670)", "sequence (P08670 whole entry)": "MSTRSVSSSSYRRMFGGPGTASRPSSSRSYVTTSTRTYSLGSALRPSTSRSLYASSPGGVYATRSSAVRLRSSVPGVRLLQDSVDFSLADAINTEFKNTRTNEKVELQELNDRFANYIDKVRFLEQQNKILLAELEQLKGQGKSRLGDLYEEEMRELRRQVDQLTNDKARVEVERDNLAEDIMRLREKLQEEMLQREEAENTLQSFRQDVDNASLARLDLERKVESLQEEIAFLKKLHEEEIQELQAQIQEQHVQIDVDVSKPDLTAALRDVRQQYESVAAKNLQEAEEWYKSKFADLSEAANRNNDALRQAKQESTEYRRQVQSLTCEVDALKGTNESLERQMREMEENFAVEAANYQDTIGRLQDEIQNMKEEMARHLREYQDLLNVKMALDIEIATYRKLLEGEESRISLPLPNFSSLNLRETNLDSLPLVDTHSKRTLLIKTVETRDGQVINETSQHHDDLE", "assay": "Binding affinity to his-tagged recombinant Vimentin (unknown origin) assessed as dissociation constant by ELISA analysis"}},
  "note": "Active and inactive are the calls of the source. The rule behind the calls is not given here.",
  "data": [
    {"compound": "COCCN(CC(=O)N[C@H](CCCCN)C(=O)N[C@H](CCSC)C(=O)NCCOCCOCC(=O)NCCOCCOCC(=O)NCCCCC(NC(=O)COCCOCCNC(=O)COCCOCCNC(=O)[C@@H](CCSC)NC(=O)[C@@H](CCCCN)NC(=O)CN(CCOC)C(=O)CN(Cc1ccc2c(c1)OCO2)C(=O)CN(CC(C)C)C(=O)CN(CCCCN)C(=O)CN(CCCCN)C(=O)CN(CC(C)C)C(=O)CNc1ccc(C(=O)c2ccccc2)cc1)C(N)=O)C(=O)CN(Cc1ccc2c(c1)OCO2)C(=O)CN(CC(C)C)C(=O)CN(CCCCN)C(=O)CN(CCCCN)C(=O)CN(CC(C)C)C(=O)CNc1ccc(C(=O)c2ccccc2)cc1", "note": "(stereo partly specified)", "values": [
      {"measurement": "Activity", "setting": "NCI-H1299", "value": "Dose-Dependent Effect"}
    ]},
    {"compound": "COCCN(CC(=O)N[C@H](CCCCN)C(=O)N[C@H](CCSC)C(=O)NCC(=O)NCCCCC(NC(=O)CNC(=O)[C@@H](CCSC)NC(=O)[C@@H](CCCCN)NC(=O)CN(CCOC)C(=O)CN(Cc1ccc2c(c1)OCO2)C(=O)CN(CC(C)C)C(=O)CN(CCCCN)C(=O)CN(CCCCN)C(=O)CN(CC(C)C)C(=O)CNc1ccc(C(=O)c2ccccc2)cc1)C(N)=O)C(=O)CN(Cc1ccc2c(c1)OCO2)C(=O)CN(CC(C)C)C(=O)CN(CCCCN)C(=O)CN(CCCCN)C(=O)CN(CC(C)C)C(=O)CNc1ccc(C(=O)c2ccccc2)cc1", "note": "(stereo partly specified)", "values": [
      {"measurement": "IC50", "setting": "NCI-H1299; NCI-H1299, 96 h", "value": 6, "unit": "µM"},
      {"measurement": "Activity", "setting": "NCI-H1299", "value": "Dose-Dependent Effect"}
    ]},
    {"compound": "COCCN(CC(=O)N[C@H](CCCCN)C(=O)N[C@H](CCSC)C(=O)NCC(=O)NCCCCC(NC(=O)CNC(=O)CNC(=O)[C@@H](CCSC)NC(=O)[C@@H](CCCCN)NC(=O)CN(CCOC)C(=O)CN(Cc1ccc2c(c1)OCO2)C(=O)CN(CC(C)C)C(=O)CN(CCCCN)C(=O)CN(CCCCN)C(=O)CN(CC(C)C)C(=O)CNc1ccc(C(=O)c2ccccc2)cc1)C(N)=O)C(=O)CN(Cc1ccc2c(c1)OCO2)C(=O)CN(CC(C)C)C(=O)CN(CCCCN)C(=O)CN(CCCCN)C(=O)CN(CC(C)C)C(=O)CNc1ccc(C(=O)c2ccccc2)cc1", "note": "(stereo partly specified)", "values": [
      {"measurement": "Activity", "setting": "NCI-H1299", "value": "Dose-Dependent Effect"}
    ]},
    {"compound": "COCCN(CC(=O)N[C@H](CCCCN)C(=O)N[C@H](CCSC)C(=O)NCCOCCOCC(=O)NCCCCC(NC(=O)COCCOCCNC(=O)[C@@H](CCSC)NC(=O)[C@@H](CCCCN)NC(=O)CN(CCOC)C(=O)CN(Cc1ccc2c(c1)OCO2)C(=O)CN(CC(C)C)C(=O)CN(CCCCN)C(=O)CN(CCCCN)C(=O)CN(CC(C)C)C(=O)CNc1ccc(C(=O)c2ccccc2)cc1)C(N)=O)C(=O)CN(Cc1ccc2c(c1)OCO2)C(=O)CN(CC(C)C)C(=O)CN(CCCCN)C(=O)CN(CCCCN)C(=O)CN(CC(C)C)C(=O)CNc1ccc(C(=O)c2ccccc2)cc1", "note": "(stereo partly specified)", "values": [
      {"measurement": "Activity", "setting": "NCI-H1299", "value": "Dose-Dependent Effect"}
    ]},
    {"compound": "COCCN(CC(=O)N[C@H](CCCCN)C(=O)N[C@H](CCSC)C(=O)NCC(=O)NCCCCC(NC(=O)COCCOCCNC(=O)CNC(=O)[C@@H](CCSC)NC(=O)[C@@H](CCCCN)NC(=O)CN(CCOC)C(=O)CN(Cc1ccc2c(c1)OCO2)C(=O)CN(CC(C)C)C(=O)CN(CCCCN)C(=O)CN(CCCCN)C(=O)CN(CC(C)C)C(=O)CNc1ccc(C(=O)c2ccccc2)cc1)C(N)=O)C(=O)CN(Cc1ccc2c(c1)OCO2)C(=O)CN(CC(C)C)C(=O)CN(CCCCN)C(=O)CN(CCCCN)C(=O)CN(CC(C)C)C(=O)CNc1ccc(C(=O)c2ccccc2)cc1", "note": "(stereo partly specified)", "values": [
      {"measurement": "Activity", "setting": "NCI-H1299", "value": "Dose-Dependent Effect"}
    ]},
    {"compound": "COCCN(CC(=O)N[C@H](CCCCN)C(=O)N[C@H](CCSC)C(=O)NCC(=O)NCC(=O)NCCCCC(NC(=O)CNC(=O)CNC(=O)[C@@H](CCSC)NC(=O)[C@@H](CCCCN)NC(=O)CN(CCOC)C(=O)CN(Cc1ccc2c(c1)OCO2)C(=O)CN(CC(C)C)C(=O)CN(CCCCN)C(=O)CN(CCCCN)C(=O)CN(CC(C)C)C(=O)CNc1ccc(C(=O)c2ccccc2)cc1)C(N)=O)C(=O)CN(Cc1ccc2c(c1)OCO2)C(=O)CN(CC(C)C)C(=O)CN(CCCCN)C(=O)CN(CCCCN)C(=O)CN(CC(C)C)C(=O)CNc1ccc(C(=O)c2ccccc2)cc1", "note": "(stereo partly specified)", "values": [
      {"measurement": "Activity", "setting": "NCI-H1299", "value": "Dose-Dependent Effect"}
    ]},
    {"compound": "COCCN(CC(=O)N[C@H](CCCCN)C(=O)N[C@H](CCSC)C(=O)NCCCCC(NC(=O)[C@@H](CCSC)NC(=O)[C@@H](CCCCN)NC(=O)CN(CCOC)C(=O)CN(Cc1ccc2c(c1)OCO2)C(=O)CN(CC(C)C)C(=O)CN(CCCCN)C(=O)CN(CCCCN)C(=O)CN(CC(C)C)C(=O)CNc1ccc(C(=O)c2ccccc2)cc1)C(N)=O)C(=O)CN(Cc1ccc2c(c1)OCO2)C(=O)CN(CC(C)C)C(=O)CN(CCCCN)C(=O)CN(CCCCN)C(=O)CN(CC(C)C)C(=O)CNc1ccc(C(=O)c2ccccc2)cc1", "note": "(stereo partly specified)", "values": [
      {"measurement": "Activity", "setting": "NCI-H1299", "value": "Dose-Dependent Effect"},
      {"measurement": "inhibition", "setting": "NCI-H460", "value": "Active"},
      {"measurement": "Kd", "setting": "Vimentin", "value": 1000, "unit": "nM"}
    ]},
    {"compound": "COCCN(CC(=O)N[C@H](CCCCN)C(=O)N[C@H](CCSC)C(=O)NCCCCC(NC(=O)CNC(=O)[C@@H](CCSC)NC(=O)[C@@H](CCCCN)NC(=O)CN(CCOC)C(=O)CN(Cc1ccc2c(c1)OCO2)C(=O)CN(CC(C)C)C(=O)CN(CCCCN)C(=O)CN(CCCCN)C(=O)CN(CC(C)C)C(=O)CNc1ccc(C(=O)c2ccccc2)cc1)C(N)=O)C(=O)CN(Cc1ccc2c(c1)OCO2)C(=O)CN(CC(C)C)C(=O)CN(CCCCN)C(=O)CN(CCCCN)C(=O)CN(CC(C)C)C(=O)CNc1ccc(C(=O)c2ccccc2)cc1", "note": "(stereo partly specified)", "values": [
      {"measurement": "Activity", "setting": "NCI-H1299", "value": "Dose-Dependent Effect"}
    ]}
  ]
}
